Data reported in ChEMBL document CHEMBL5518224, “Rational Design of PARP1/c-Met Dual Inhibitors for Overcoming PARP1 Inhibitor Resistance Induced by c-Met Overexpression” (J Med Chem, 2024).
The source made the active and inactive calls. The calls are words filed in the database; no cut-off is given here.

Experiments:
MDA-MB-231 [1] = assay: Induction of apoptosis in human MDA-MB-231 cells assessed as live cells at 0.5 uM incubated for 4 days in presence of olaparib at 1 uM by Annexin V-FITC/PI staining based flow cytometry analysis (reference value: 94.6%); format: functional; settings: time 4 day
[2] = system: Olaparib-resistant HCT116; assay: Antiproliferative activity against human Olaparib-resistant HCT116 cells harboring BRCA2 mutant assessed as inhibition of cell growth incubated for 7 days by MTT assay; format: functional, cell-based; settings: Olaparib-resistant HCT116, 168 h
MDA-MB-231 [3] = assay: Induction of apoptosis in human MDA-MB-231 cells assessed as dead cells at 0.5 uM incubated for 4 days in presence of olaparib at 1 uM by Annexin V-FITC/PI staining based flow cytometry analysis (reference value: 0.72%); format: functional; settings: time 4 day
MDA-MB-231 [4] = assay: Antiproliferative activity against human MDA-MB-231 cells harboring wild type BRCA and c-Met amplification assessed as inhibition of cell growth incubated for 7 days by MTT assay; format: functional, cell-based; settings: MDA-MB-231, 168 h
MDA-MB-231 [5] = assay: Antitumor activity against human MDA-MB-231 cells xenografted in female Balb/c nude mouse assessed as reduction in tumor weight at 25 mg/kg/day, po qd administered for 28 days; format: functional, organism-based; settings: time 28.0 day
[6] = Antiproliferative activity against human Olaparib-resistant HCC1937 cells harboring BRCA1 mutant and PARP1 overexpression assessed as inhibition of cell growth incubated for 7 days by MTT assay; format: functional, cell-based; settings: Olaparib-resistant HCC1937, 168 h
MDA-MB-231 [7] = assay: Antitumor activity against human MDA-MB-231 cells xenografted in female Balb/c nude mouse assessed as tumor growth inhibition at 25 mg/kg/day, po qd administered for 28 days relative to control; format: functional; settings: MDA-MB-231, 672 h, time 28 day, read-out: TGI
MDA-MB-231 [8] = assay: Induction of apoptosis in human MDA-MB-231 cells assessed as dead cells at 0.5 uM incubated for 4 days by Annexin V-FITC/PI staining based flow cytometry analysis (reference value: 0.72%); format: functional; settings: time 4 day
MDA-MB-231 [9] = assay: Induction of apoptosis in human MDA-MB-231 cells assessed as early apoptotic cells at 0.5 uM incubated for 4 days by Annexin V-FITC/PI staining based flow cytometry analysis (reference value: 3.88%); format: functional; settings: time 4 day
MDA-MB-231 [10] = assay: Induction of apoptosis in human MDA-MB-231 cells assessed as early apoptotic cells at 0.5 uM incubated for 4 days in presence of olaparib at 1 uM by Annexin V-FITC/PI staining based flow cytometry analysis (reference value: 3.88%); format: functional; settings: time 4 day
[11] = system: Olaparib-resistant HCT116; assay: Antitumor activity against human Olaparib-resistant HCT116 cells xenografted in female Balb/c nude mouse assessed as tumor growth inhibition at 25 mg/kg/day, po qd administered for 21 days in presence of olaparib at 50 mg/kg/day, ip qd relative to control; format: functional; settings: Olaparib-resistant HCT116, 504 h, time 21 day, read-out: TGI
MDA-MB-231 [12] = assay: Induction of apoptosis in human MDA-MB-231 cells assessed as live cells at 0.5 uM incubated for 4 days by Annexin V-FITC/PI staining based flow cytometry analysis (reference value: 94.6%); format: functional; settings: time 4 day
MDA-MB-231 [13] = assay: Antitumor activity against human MDA-MB-231 cells xenografted in female Balb/c nude mouse assessed as tumor growth inhibition at 25 mg/kg/day, po qd administered for 28 days in presence of olaparib 50 mg/kg, ip qd relative to control; format: functional; settings: MDA-MB-231, 672 h, time 28 day, read-out: TGI
MDA-MB-231 [14] = assay: Induction of apoptosis in human MDA-MB-231 cells assessed as late apoptotic cells at 0.5 uM incubated for 4 days in presence of olaparib at 1 uM by Annexin V-FITC/PI staining based flow cytometry analysis (reference value: 0.81%); format: functional; settings: time 4 day
MDA-MB-468 = assay: Antiproliferative activity against human MDA-MB-468 cells harboring wild type BRCA1/2, HR-proficient and non-c-Met amplification assessed as inhibition of cell growth incubated for 7 days by MTT assay; format: functional, cell-based; settings: MDA-MB-468, 168 h
[15] = system: Olaparib-resistant HCT116; assay: Antitumor activity against human Olaparib-resistant HCT116 cells xenografted in female Balb/c nude mouse assessed as tumor growth inhibition at 25 mg/kg/day, po qd administered for 21 days relative to control; format: functional; settings: Olaparib-resistant HCT116, 504 h, time 21 day, read-out: TGI
[16] = system: Olaparib-resistant HCT116; assay: Antitumor activity against human Olaparib-resistant HCT116 cells xenografted in female Balb/c nude mouse assessed as reduction in tumor weight at 25 mg/kg/day, po qd administered for 21 days; format: functional, organism-based; settings: time 21.0 day
MDA-MB-231 [17] = assay: Antitumor activity against human MDA-MB-231 cells xenografted in female Balb/c nude mouse assessed as reduction in tumor weight at 25 mg/kg/day, po qd administered for 28 days in presence of olaparib 50 mg/kg, ip qd; format: functional, organism-based; settings: time 28.0 day
MDA-MB-231 [18] = assay: Induction of apoptosis in human MDA-MB-231 cells assessed as late apoptotic cells at 0.5 uM incubated for 4 days by Annexin V-FITC/PI staining based flow cytometry analysis (reference value: 0.81%); format: functional; settings: time 4 day

## C[C@@H](Oc1cc(-c2cnn(C3CCNCC3)c2)cnc1N)c1c(Cl)ccc(F)c1Cl [CRIZOTINIB]
MDA-MB-231 [1]
  Activity: 76.9%
[2]
  IC50: 3.15 µM
MDA-MB-231 [3]
  Activity: 9.45%
MDA-MB-231 [4]
  IC50: 8.37 µM
MDA-MB-231 [5]
  Activity: Active
[6]
  IC50: 5.23 µM
MDA-MB-231 [7]
  inhibition in vivo at 25 mg/kg/day: 6%
MDA-MB-231 [8]
  Activity: 2.23%
MDA-MB-231 [9]
  Activity: 4.75%
MDA-MB-231 [10]
  Activity: 7.12%
[11]
  inhibition in vivo at 25 mg/kg/day: 48%
MDA-MB-231 [12]
  Activity: 90.9%
MDA-MB-231 [13]
  inhibition in vivo at 25 mg/kg/day: 69%
MDA-MB-231 [14]
  Activity: 6.57%
MDA-MB-468
  IC50: 4.54 µM
[15]
  inhibition in vivo at 25 mg/kg/day: 21%
[16]
  Activity: Active
MDA-MB-231 [17]
  Activity: Active
MDA-MB-231 [18]
  Activity: 2.08%
